The source made the active and inactive calls. The calls are words filed in the database; no cut-off is given here.

The source of these data is ChEMBL document CHEMBL4270563, “Neurogenic and neuroprotective donepezil-flavonoid hybrids with sigma-1 affinity and inhibition of key enzymes in Alzheimer's disease” (Eur J Med Chem, 2018).

Data set [1] has as its system SH-SY5Y. In words: Neuroprotective activity against rotenone/oligomycin A-induced mitochondrial oxidative stress in human SH-SY5Y cells at 10 nM after 24 hrs by MTT assay relative to control. Format: functional. Background: Tetrazolium dyes change colour on reduction, which living cells bring about.
Data set [2] has as its system SH-SY5Y. In words: Neuroprotective activity against rotenone/oligomycin A-induced mitochondrial oxidative stress in human SH-SY5Y cells at 0.3 uM after 24 hrs by MTT assay relative to control. It is filed as functional.
Data set [3] has as its target T1, Sigma intracellular receptor 2 (Rattus norvegicus, UniProt Q5U3Y7).
T1 sequence (Q5U3Y7 whole entry): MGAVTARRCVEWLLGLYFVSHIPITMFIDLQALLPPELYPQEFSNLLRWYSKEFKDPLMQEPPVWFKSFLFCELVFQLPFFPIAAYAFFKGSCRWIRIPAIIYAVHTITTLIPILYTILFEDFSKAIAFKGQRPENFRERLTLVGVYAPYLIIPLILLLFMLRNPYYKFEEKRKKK
Put plainly: Displacement of [3H]DTG from sigma2 receptor in rat liver membranes by liquid scintillation counting method. Format: cell membranes, Membrane. (In general: In a radioligand displacement assay an active substance lowers the binding of a labelled ligand.)

In data set [4] the test system is SH-SY5Y. In words: Neuroprotective activity against rotenone/oligomycin A-induced mitochondrial oxidative stress in human SH-SY5Y cells at 0.1 uM after 24 hrs by MTT assay relative to control. It is filed as functional.
The target of a further data set is Cholinesterase (Homo sapiens, UniProt P06276). Put plainly: Inhibition of human serum BuChE using butyrylthiocholine as substrate pretreated for 5 mins followed by substrate addition and measured for 5 mins by Ellman's method. (Ellman's reagent forms a yellow product with free thiols.)
Data set [5] addresses T2, Acetylcholinesterase (Homo sapiens, UniProt P22303). In words: Inhibition of recombinant human AChE expressed in HEK293 cells using acetylthiocholine iodide as substrate pretreated for 5 mins followed by substrate addition and measured for 5 mins by Ellman's method.
The species named for data set [6] is Mus musculus. Put plainly: Neurogenic activity in C57BL/6 mouse subgranular zone neural stem cell-derived neurospheres assessed as differentiation of neural stem cells at 10 uM treated for 7 days followed by poly-L-lysine addition and measured after 3 days by DAPI staining based confocal microscopic analysis. Format: functional.
Data set [7] concerns the target Sigma non-opioid intracellular receptor 1 (Cavia porcellus, UniProt Q60492). In words: Displacement of (+)-[3H]pentazocine from guinea pig brain membrane sigma1 receptor by liquid scintillation counting method.
Data set [8] has as its target T3, Amine oxidase [flavin-containing] A (Homo sapiens, UniProt P21397).
T3 sequence (P21397 whole entry): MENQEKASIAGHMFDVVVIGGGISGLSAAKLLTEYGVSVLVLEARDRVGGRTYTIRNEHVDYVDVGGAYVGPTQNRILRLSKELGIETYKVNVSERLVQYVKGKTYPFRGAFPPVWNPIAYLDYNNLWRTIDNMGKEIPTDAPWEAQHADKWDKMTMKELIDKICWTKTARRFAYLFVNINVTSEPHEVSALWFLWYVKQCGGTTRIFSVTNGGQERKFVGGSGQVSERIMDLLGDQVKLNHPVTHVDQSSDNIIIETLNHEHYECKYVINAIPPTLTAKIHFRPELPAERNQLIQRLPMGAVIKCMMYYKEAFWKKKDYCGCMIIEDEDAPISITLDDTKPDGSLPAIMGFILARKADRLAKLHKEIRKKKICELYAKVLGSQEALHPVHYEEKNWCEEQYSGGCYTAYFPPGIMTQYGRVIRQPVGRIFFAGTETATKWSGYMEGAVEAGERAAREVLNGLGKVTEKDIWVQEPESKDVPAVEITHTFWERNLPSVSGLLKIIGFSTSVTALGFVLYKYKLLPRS
In words: Inhibition of recombinant human MAO-A expressed in baculovirus infected BTI insect cells using p-tyramine as substrate pretreated for 15 mins followed by substrate addition by horse-radish peroxidase/amplex red-based fluorescence method.

The nature of data set [9]: Selectivity ratio of Ki for displacement of [3H]DTG from sigma2 receptor in rat liver membranes to Ki for displacement of (+)-[3H]pentazocine from guinea pig brain membrane sigma1 receptor. It is filed as cell membranes.
The next data set can be described thus: in vitro. To be noted: PAMPA, pH 7.4.
Data set [10] relates to SH-SY5Y. In words: Neuroprotective activity against rotenone/oligomycin A-induced mitochondrial oxidative stress in human SH-SY5Y cells at 1 uM after 24 hrs by MTT assay relative to control. Format: functional.
The species named for data set [11] is Homo sapiens. Put plainly: Selectivity index, ratio of IC50 for human serum BuChE to IC50 for recombinant human AChE expressed in HEK293 cells. It is filed as cell-based.
For data set [12], the species on record is Mus musculus. In words: Neurogenic activity in C57BL/6 mouse subgranular zone neural stem cell-derived neurospheres assessed as neuronal maturation at 10 uM treated for 7 days followed by poly-L-lysine addition and measured after 3 days by DAPI staining based confocal microscopic analysis. It is filed as functional.
Data set [13] deals with T4, Amine oxidase [flavin-containing] B (Homo sapiens, UniProt P27338).
T4 sequence (P27338 whole entry): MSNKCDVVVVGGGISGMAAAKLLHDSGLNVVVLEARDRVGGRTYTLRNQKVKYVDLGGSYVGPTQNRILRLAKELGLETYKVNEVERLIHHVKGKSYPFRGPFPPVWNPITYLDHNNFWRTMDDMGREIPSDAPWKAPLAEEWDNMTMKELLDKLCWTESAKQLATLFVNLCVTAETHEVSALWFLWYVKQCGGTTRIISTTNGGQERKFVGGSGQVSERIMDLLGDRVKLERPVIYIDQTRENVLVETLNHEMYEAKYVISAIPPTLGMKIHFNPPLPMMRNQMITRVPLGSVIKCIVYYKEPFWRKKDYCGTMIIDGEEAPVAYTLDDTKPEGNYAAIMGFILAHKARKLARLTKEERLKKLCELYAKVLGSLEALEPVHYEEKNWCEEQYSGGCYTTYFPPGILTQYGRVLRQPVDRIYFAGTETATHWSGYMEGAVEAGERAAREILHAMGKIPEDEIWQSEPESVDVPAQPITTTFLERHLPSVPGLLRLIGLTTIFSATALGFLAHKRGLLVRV
In words: biochemical. It is filed as cell-based.
Description: Inhibition of recombinant human MAO-B expressed in baculovirus infected BTI insect cells using p-tyramine as substrate pretreated for 15 mins followed by substrate addition by horse-radish peroxidase/amplex red-based fluorescence method

The target of data set [14] is T5, Polyunsaturated fatty acid 5-lipoxygenase (Homo sapiens, UniProt P09917).
T5 sequence (P09917 whole entry): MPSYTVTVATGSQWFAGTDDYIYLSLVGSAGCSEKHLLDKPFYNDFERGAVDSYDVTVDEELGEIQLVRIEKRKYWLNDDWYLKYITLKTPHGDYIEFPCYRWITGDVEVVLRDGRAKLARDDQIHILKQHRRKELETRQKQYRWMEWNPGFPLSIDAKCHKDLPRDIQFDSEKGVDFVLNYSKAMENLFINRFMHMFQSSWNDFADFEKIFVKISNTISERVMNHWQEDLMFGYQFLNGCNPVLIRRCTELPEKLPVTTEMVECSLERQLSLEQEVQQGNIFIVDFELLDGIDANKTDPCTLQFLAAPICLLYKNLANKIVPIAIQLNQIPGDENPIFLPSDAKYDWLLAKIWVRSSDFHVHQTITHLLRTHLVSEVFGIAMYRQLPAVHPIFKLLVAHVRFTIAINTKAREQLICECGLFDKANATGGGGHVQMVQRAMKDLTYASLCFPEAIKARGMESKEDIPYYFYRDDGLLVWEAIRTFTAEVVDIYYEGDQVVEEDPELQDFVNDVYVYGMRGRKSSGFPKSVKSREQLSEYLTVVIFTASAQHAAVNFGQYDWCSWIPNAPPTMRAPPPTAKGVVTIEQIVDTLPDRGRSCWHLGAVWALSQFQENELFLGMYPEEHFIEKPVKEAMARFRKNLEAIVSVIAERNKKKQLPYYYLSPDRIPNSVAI
In words: Inhibition of human 5-lipoxygenase using arachidonic acid as substrate pretreated for 10 mins followed by substrate and ATP addition and measured after 20 mins by H2DCFDA probe based fluorescence assay.

A short description of data set [15]: Antioxidant activity assessed as trolox equivalent of AAPH-induced radical scavenging activity at 10 uM pretreated for 15 mins followed by APPH challenge measured every minute for 80 mins by ORAC-FL assay. Format: functional.
Data set [16] relates to SH-SY5Y. Put plainly: Neuroprotective activity against rotenone/oligomycin A-induced mitochondrial oxidative stress in human SH-SY5Y cells at 3 uM after 24 hrs by MTT assay relative to control. Format: functional.
For data set [17], the target named is T2, Acetylcholinesterase. Put plainly: Inhibition of recombinant human AChE expressed in HEK293 cells using varying levels of acetylthiocholine iodide as substrate by Lineweaver-burk plot analysis.
Data set [18] is described as follows: Antioxidant activity assessed as trolox equivalent of AAPH-induced radical scavenging activity pretreated for 15 mins followed by APPH challenge measured every minute for 80 mins by ORAC-FL assay. It is filed as functional.
For data set [19], the species on record is Homo sapiens. Put plainly: Selectivity ratio of IC50 for recombinant human MAO-A expressed in baculovirus infected BTI insect cells to IC50 for recombinant human MAO-B expressed in baculovirus infected BTI insect cells.

T2 sequence (P22303 whole entry): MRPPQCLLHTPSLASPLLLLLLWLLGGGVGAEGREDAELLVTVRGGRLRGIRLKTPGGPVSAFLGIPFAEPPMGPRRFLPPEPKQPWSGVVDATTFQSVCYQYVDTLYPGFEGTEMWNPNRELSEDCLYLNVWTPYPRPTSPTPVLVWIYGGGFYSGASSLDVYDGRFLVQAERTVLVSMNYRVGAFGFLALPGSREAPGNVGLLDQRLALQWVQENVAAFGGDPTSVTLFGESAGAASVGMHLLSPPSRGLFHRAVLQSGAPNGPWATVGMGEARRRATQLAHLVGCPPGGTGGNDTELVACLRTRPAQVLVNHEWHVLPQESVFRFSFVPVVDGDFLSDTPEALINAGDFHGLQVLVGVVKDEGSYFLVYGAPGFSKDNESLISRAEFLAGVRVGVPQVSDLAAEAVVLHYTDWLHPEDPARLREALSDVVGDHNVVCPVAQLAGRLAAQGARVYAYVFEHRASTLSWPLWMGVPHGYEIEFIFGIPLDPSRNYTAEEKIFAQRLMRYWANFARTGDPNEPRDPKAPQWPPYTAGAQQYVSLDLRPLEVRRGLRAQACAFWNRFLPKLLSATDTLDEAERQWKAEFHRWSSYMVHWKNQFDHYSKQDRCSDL
Sequence of Cholinesterase (P06276 whole entry): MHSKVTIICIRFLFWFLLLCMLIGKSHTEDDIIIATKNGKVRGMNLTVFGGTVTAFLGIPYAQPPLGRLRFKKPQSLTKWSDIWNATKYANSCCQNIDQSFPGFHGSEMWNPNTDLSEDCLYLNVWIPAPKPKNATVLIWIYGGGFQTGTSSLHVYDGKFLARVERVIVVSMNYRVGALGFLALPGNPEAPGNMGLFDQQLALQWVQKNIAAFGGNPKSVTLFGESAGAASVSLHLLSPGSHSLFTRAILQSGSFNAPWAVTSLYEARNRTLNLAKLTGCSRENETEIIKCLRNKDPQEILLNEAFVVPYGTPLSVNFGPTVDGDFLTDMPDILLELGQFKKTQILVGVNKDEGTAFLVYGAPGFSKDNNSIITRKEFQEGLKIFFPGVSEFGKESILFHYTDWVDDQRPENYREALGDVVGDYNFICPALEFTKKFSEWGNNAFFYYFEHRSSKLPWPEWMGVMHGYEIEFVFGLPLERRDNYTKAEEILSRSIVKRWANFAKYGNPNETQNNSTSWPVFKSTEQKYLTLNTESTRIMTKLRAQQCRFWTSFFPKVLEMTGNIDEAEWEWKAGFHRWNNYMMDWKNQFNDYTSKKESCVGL
Sequence of Sigma non-opioid intracellular receptor 1 (Q60492 whole entry): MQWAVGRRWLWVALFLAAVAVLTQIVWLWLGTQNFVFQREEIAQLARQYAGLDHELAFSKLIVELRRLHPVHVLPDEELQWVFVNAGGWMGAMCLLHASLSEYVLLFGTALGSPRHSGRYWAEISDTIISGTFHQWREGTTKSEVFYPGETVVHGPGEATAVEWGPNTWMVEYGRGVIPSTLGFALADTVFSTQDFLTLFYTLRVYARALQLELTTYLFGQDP
Description for in vitro: Permeability of the compound in pH 7.4 PBS by PAMPA-BBB assay

Turning to `COc1ccc2[nH]cc(CCNC(C)=O)c2c1` [MELATONIN], the Activity with SH-SY5Y [1] came out at 42.1%.

`COc1cc2oc(C(=O)NCCC3CCN(Cc4ccccc4)CC3)cc(=O)c2cc1OC`: the Activity with SH-SY5Y [2] is recorded as 18.1%; in the data set on SH-SY5Y [4], 11.5%; in the data set on SH-SY5Y [10], 17.1%; in the data set on SH-SY5Y [16], 22.4%. Further, the Ki (commonly the equilibrium dissociation constant of an inhibitor or competing ligand from its target) came out at 239 nM in [3], 37.4 nM in data set [7] and 39 nM at Acetylcholinesterase [17]. Further, the IC50 (as a rule, the concentration that gives 50% inhibition) on Cholinesterase was above 10000 nM; at Acetylcholinesterase [5] it was 46 nM; in data set [8] it was 15300 nM; in [13], 5200 nM; in data set [14] it was 74300 nM. The result in the data set filed under Mus musculus [6] and in the data set filed under Mus musculus [12] was Active. Further, in data set [9], the Ratio Ki came out at 6. In the data set “in vitro”, the apparent permeability (Papp) (usually the rate of passage across a membrane or cell layer, normalised by area and donor concentration) worked out at 5.9 ×10⁻⁶ cm/s. Besides, the Ratio IC50 in the data set listed under Homo sapiens [11] was above 217. The result in data set [15] was inactive.

Consider `O=C(NCCC1CCN(Cc2ccccc2)CC1)c1cc(=O)c2cccc(O)c2[nH]1`, for which the Ki in data set [3] came out at 290 nM; in data set [7] it was 47.4 nM. Besides, the IC50 at Cholinesterase was above 10000 nM; at Acetylcholinesterase [5] it was 1150 nM; in data set [8], above 100000 nM; in data set [13] it was 13600 nM; in data set [14], 77600 nM. In [18], the Activity (umolequiv/umol) turned out to be 1. Further, the Ratio Ki in data set [9] was found to be 6. Besides, in “in vitro”, the Papp came to 4.9 ×10⁻⁶ cm/s. Moreover, the values for the Ratio IC50 in the data set filed under Homo sapiens [11] and in the data set listed under Homo sapiens [19] were above 8.7 and 7, respectively.
